Columns and labels:
Test in all cases: relative viability (nuclei count vs DMSO), 5 days (fraction); higher = more cells survive
[1] = compound: Cc1ccc2nc(NCCN)c3ncc(C)n3c2c1 + COc1cc2c(Oc3ccc(NC(=O)C4(C(=O)Nc5ccc(F)cc5)CC4)cc3F)ccnc2cc1OCCCN1CCOCC1 [Foretinib] (partner 0.25 µM)
Method in brief: (§1)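 Relative viability is defined as nuclei in treated wells over nuclei in vehicle wells. Duplicate plates were run and medians reported. Lung cancer cell lines in 1536-well plates were dosed by pin tool one day after seeding, with one drug or with a fixed anchor-drug dose plus five library-drug doses (not always all listed) in √10 steps, and nuclei were counted after 5 days.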

[2] = compound: Cc1ccc2nc(NCCN)c3ncc(C)n3c2c1 + C[C@@H](Oc1cc(-c2cnn(C3CCNCC3)c2)cnc1N)c1c(Cl)ccc(F)c1Cl [Crizotinib] (partner 1 µM)
Method in brief: as §1

[3] = compound: Cc1ccc2nc(NCCN)c3ncc(C)n3c2c1 + C[C@]1(O)C[C@@H](c2nc(-c3ccc4ccc(-c5ccccc5)nc4c3)c3c(N)nccn32)C1 [Linsitinib] (partner 1 µM)
Method in brief: as §1

[4] = compound: O=C(/C=C/c1ccccc1)NC(NC(=S)Nc1cccc2cccnc12)C(Cl)(Cl)Cl [Salubrinal] + CS(=O)(=O)N1CCN(Cc2cc3nc(-c4cccc5[nH]ncc45)nc(N4CCOCC4)c3s2)CC1 [Pictilisib] (partner 1 µM)
Method in brief: as §1

Row | Cell Line | relative viability ([1]; first compound 0.04 µM) | relative viability ([1]; first compound 0.1265 µM) | relative viability ([1]; first compound 0.4 µM) | relative viability ([1]; first compound 1.265 µM) | relative viability ([1]; first compound 4 µM) | relative viability ([2]; first compound 0.04 µM) | relative viability ([2]; first compound 0.1265 µM) | relative viability ([2]; first compound 0.4 µM) | relative viability ([2]; first compound 1.265 µM) | relative viability ([2]; first compound 4 µM) | relative viability ([3]; first compound 0.04 µM) | relative viability ([3]; first compound 0.1265 µM) | relative viability ([3]; first compound 0.4 µM) | relative viability ([3]; first compound 1.265 µM) | relative viability ([3]; first compound 4 µM) | relative viability ([4]; first compound 0.08 µM) | relative viability ([4]; first compound 0.253 µM) | relative viability ([4]; first compound 0.8 µM) | relative viability ([4]; first compound 8 µM) | relative viability ([4]; first compound 2.53 µM)
1 | NCI-H1651 | 0.682 | 0.744 | 0.825 | 0.727 | 0.759 | 0.732 | 0.795 | 0.838 | 0.888 | 0.814 | 0.982 | 0.837 | 0.982 | 0.928 | 0.795 | 0.822 | 0.486 | 0.667 | 0.423 | 
2 | NCI-H441 | 1.1 | 1.28 | 0.982 | 0.926 | 0.918 | 0.904 | 0.665 | 0.684 | 0.617 | 0.947 | 0.752 | 0.509 | 0.714 | 0.563 | 0.504 | 0.479 | 0.432 | 0.705 | 0.294 | 0.534
3 | LCLC-103H | 0.753 | 0.919 | 0.802 | 0.761 | 0.633 | 1.07 | 1.03 | 1.05 | 1.07 | 1.06 | 1.06 | 1.06 | 1.06 | 1.14 | 1.16 | 0.591 | 0.599 | 0.743 | 0.535 | 0.562
4 | LCLC-97TM1 | 0.91 | 0.998 | 0.934 | 0.931 | 0.892 | 0.379 | 0.394 | 0.255 | 0.287 | 0.293 | 0.204 | 0.166 | 0.185 | 0.19 | 0.201 | 0.261 | 0.162 | 0.2 | 0.181 | 
5 | NCI-H727 | 1.23 | 0.778 | 0.894 | 0.911 | 1.18 | 0.984 | 0.82 | 0.779 | 0.811 | 0.925 | 0.322 | 0.352 | 0.285 | 0.308 | 0.338 | 0.318 | 0.312 | 0.433 | 0.359 | 0.197
6 | NCI-H1355 | 1.03 | 0.943 | 0.901 | 0.977 | 0.978 | 1.1 | 1.15 | 1.04 | 1.01 | 0.983 | 0.811 | 0.825 | 0.814 | 0.771 | 0.719 | 0.366 | 0.433 | 0.45 | 0.425 | 0.426
7 | HOP-62 | 1.05 | 1.07 | 1.1 | 1.13 | 1.02 | 1.01 | 0.895 | 0.811 | 0.812 | 0.835 | 1.11 | 0.912 | 1.11 | 0.922 | 0.89 | 0.509 | 0.468 | 0.681 | 0.691 | 0.505
8 | NCI-H2085 | 0.903 | 1.14 | 0.941 | 0.929 | 0.946 | 1.01 | 0.77 | 0.879 | 0.848 | 0.87 | 0.894 | 0.941 | 0.928 | 0.862 | 0.87 | 0.464 | 0.475 | 0.512 | 0.489 | 0.542

Reference: the supplement of paper PMC10307832
